{"source": "patent US4297486A", "about": "“Aminoglycoside antibiotic G-367-1 and method for the production thereof” (Toyo Jozo Kabushiki Kaisha, priority 1979, dated 1981)", "key": {"Solubility": {"experiment": "Solubility", "format": "physicochemical"}, "[1]": {"test_system": "Enterobacter aerogenes 0655", "experiment": "antimicrobial spectrum, MIC by agar dilution method", "format": "cell-based", "conditions": "Klebsiella aerogenes, read-out: minimum inhibitory concentration, MIC", "excerpt": "(§1) The antimicrobial spectrum (minimum inhibitory concentration, MIC) of G-367-1 by agar dilution method is as follows: […]"}, "[2]": {"test_system": "Pseudomonas aeruginosa ML4561 Rms166", "experiment": "antimicrobial spectrum, MIC by agar dilution method", "format": "cell-based", "conditions": "ML4561RMS166, read-out: minimum inhibitory concentration, MIC", "excerpt": "as §1"}, "[3]": {"test_system": "Staphylococcus aureus MS 27", "experiment": "antimicrobial spectrum, MIC by agar dilution method", "format": "cell-based", "conditions": "MS27, read-out: minimum inhibitory concentration, MIC", "excerpt": "as §1"}, "Shigella sonnei E33": {"test_system": "Shigella sonnei E33", "experiment": "antimicrobial spectrum, MIC by agar dilution method", "format": "cell-based", "conditions": "read-out: minimum inhibitory concentration, MIC", "excerpt": "as §1"}, "[4]": {"test_system": "Pseudomonas aeruginosa 1946", "experiment": "antimicrobial spectrum, MIC by agar dilution method", "format": "cell-based", "conditions": "read-out: minimum inhibitory concentration, MIC", "excerpt": "as §1"}, "Pseudomonas putida 1842": {"test_system": "Pseudomonas putida 1842", "experiment": "antimicrobial spectrum, MIC by agar dilution method", "format": "cell-based", "conditions": "read-out: minimum inhibitory concentration, MIC", "excerpt": "as §1"}, "[5]": {"test_system": "Pseudomonas aeruginosa IAM1095", "experiment": "antimicrobial spectrum, MIC by agar dilution method", "format": "cell-based", "conditions": "read-out: minimum inhibitory concentration, MIC", "excerpt": "as §1"}, "[6]": {"test_system": "Pseudomonas aeruginosa ML4561 Rms164-1", "experiment": "antimicrobial spectrum, MIC by agar dilution method", "format": "cell-based", "conditions": "ML4561RMS1641, read-out: minimum inhibitory concentration, MIC", "excerpt": "as §1"}, "Proteus morganii 0239": {"test_system": "Proteus morganii 0239", "experiment": "antimicrobial spectrum, MIC by agar dilution method", "format": "cell-based", "conditions": "Morganella morganii, read-out: minimum inhibitory concentration, MIC", "excerpt": "as §1"}, "Serratia marcescens": {"test_system": "Serratia marcescens", "experiment": "antimicrobial spectrum, MIC by agar dilution method", "format": "cell-based", "conditions": "read-out: minimum inhibitory concentration, MIC", "excerpt": "as §1"}, "[7]": {"test_system": "Pseudomonas aeruginosa ML4561 RP4", "experiment": "antimicrobial spectrum, MIC by agar dilution method", "format": "cell-based", "conditions": "ML4561RP4, read-out: minimum inhibitory concentration, MIC", "excerpt": "as §1"}, "[8]": {"test_system": "Enterobacter cloacae GN366", "experiment": "antimicrobial spectrum, MIC by agar dilution method", "format": "cell-based", "conditions": "read-out: minimum inhibitory concentration, MIC", "excerpt": "as §1"}, "[9]": {"test_system": "Citrobacter freundii GN346", "experiment": "antimicrobial spectrum, MIC by agar dilution method", "format": "cell-based", "conditions": "read-out: minimum inhibitory concentration, MIC", "excerpt": "as §1"}, "[10]": {"test_system": "Escherichia coli NIHJ-JC2", "experiment": "antimicrobial spectrum, MIC by agar dilution method", "format": "cell-based", "conditions": "NIHJJC2, read-out: minimum inhibitory concentration, MIC", "excerpt": "as §1"}, "[11]": {"test_system": "Pseudomonas aeruginosa ML4561", "experiment": "antimicrobial spectrum, MIC by agar dilution method", "format": "cell-based", "conditions": "read-out: minimum inhibitory concentration, MIC", "excerpt": "as §1"}, "[12]": {"test_system": "Salmonella enteritidis Gartner", "experiment": "antimicrobial spectrum, MIC by agar dilution method", "format": "cell-based", "conditions": "Salmonella enterica, read-out: minimum inhibitory concentration, MIC", "excerpt": "as §1"}, "[13]": {"test_system": "Klebsiella pneunonia ATCC 10031", "experiment": "antimicrobial spectrum, MIC by agar dilution method", "format": "cell-based", "conditions": "ATCC10031, read-out: minimum inhibitory concentration, MIC", "excerpt": "as §1"}, "[14]": {"test_system": "Pseudomonas maltophilia 1850", "experiment": "antimicrobial spectrum, MIC by agar dilution method", "format": "cell-based", "conditions": "Stenotrophomonas maltophilia, read-out: minimum inhibitory concentration, MIC", "excerpt": "as §1"}, "[15]": {"test_system": "Bacillus subtilis ATCC 6633", "experiment": "antimicrobial spectrum, MIC by agar dilution method", "format": "cell-based", "conditions": "ATCC6633, read-out: minimum inhibitory concentration, MIC", "excerpt": "as §1"}, "[16]": {"test_system": "Staphylococcus aureus ATCC 6538P", "experiment": "antimicrobial spectrum, MIC by agar dilution method", "format": "cell-based", "conditions": "ATCC6538P, read-out: minimum inhibitory concentration, MIC", "excerpt": "as §1"}, "[17]": {"test_system": "Pseudomonas aeruginosa 2512", "experiment": "antimicrobial spectrum, MIC by agar dilution method", "format": "cell-based", "conditions": "read-out: minimum inhibitory concentration, MIC", "excerpt": "as §1"}, "Proteus rettgeri ACR": {"test_system": "Proteus rettgeri ACR", "experiment": "antimicrobial spectrum, MIC by agar dilution method", "format": "cell-based", "conditions": "Providencia rettgeri, read-out: minimum inhibitory concentration, MIC", "excerpt": "as §1"}, "[18]": {"test_system": "Staphylococcus aureus 0119", "experiment": "antimicrobial spectrum, MIC by agar dilution method", "format": "cell-based", "conditions": "read-out: minimum inhibitory concentration, MIC", "excerpt": "as §1"}, "[19]": {"test_system": "Staphylococcus epidermidis sp-al-1", "experiment": "antimicrobial spectrum, MIC by agar dilution method", "format": "cell-based", "conditions": "SPAL1, read-out: minimum inhibitory concentration, MIC", "excerpt": "as §1"}, "Escheria coli W3630": {"test_system": "Escheria coli W3630", "experiment": "antimicrobial spectrum, MIC by agar dilution method", "format": "cell-based", "conditions": "read-out: minimum inhibitory concentration, MIC", "excerpt": "as §1"}, "[20]": {"test_system": "Streptococcus pyogenes N.Y.5", "experiment": "antimicrobial spectrum, MIC by agar dilution method", "format": "cell-based", "conditions": "read-out: minimum inhibitory concentration, MIC", "excerpt": "as §1"}, "Gram negative bacteria": {"test_system": "Gram negative bacteria", "experiment": "antibacterial effect against Gram negative bacteria", "format": "cell-based", "excerpt": "as §1"}}, "data": [{"smiles": "CNC1C(O)C(OC2C(N)CC(N)C(OC3OC(CN)=CCC3NC=O)C2O)OCC1(C)O", "note": "(stereo not drawn) [G-367-1]", "values": [{"measurement": "Solubility", "setting": "Solubility; acetone", "value": "insoluble"}, {"measurement": "Solubility", "setting": "Solubility; benzene", "value": "insoluble"}, {"measurement": "Solubility", "setting": "Solubility; chloroform", "value": "insoluble"}, {"measurement": "Solubility", "setting": "Solubility; ethyl acetate", "value": "insoluble"}, {"measurement": "Solubility", "setting": "Solubility; methanol", "value": "soluble"}, {"measurement": "Solubility", "setting": "Solubility; water", "value": "soluble"}, {"measurement": "MIC", "setting": "[1]", "value": 1.6, "unit": "µg/mL"}, {"measurement": "MIC", "setting": "[2]", "value": "> 100", "unit": "µg/mL"}, {"measurement": "MIC", "setting": "[3]", "value": 6.3, "unit": "µg/mL"}, {"measurement": "MIC", "setting": "Shigella sonnei E33", "value": 1.6, "unit": "µg/mL"}, {"measurement": "MIC", "setting": "[4]", "value": "> 100", "unit": "µg/mL"}, {"measurement": "MIC", "setting": "Pseudomonas putida 1842", "value": "> 100", "unit": "µg/mL"}, {"measurement": "MIC", "setting": "[5]", "value": 25, "unit": "µg/mL"}, {"measurement": "MIC", "setting": "[6]", "value": 50, "unit": "µg/mL"}, {"measurement": "MIC", "setting": "Proteus morganii 0239", "value": 3.1, "unit": "µg/mL"}, {"measurement": "MIC", "setting": "Serratia marcescens", "value": 25, "unit": "µg/mL"}, {"measurement": "MIC", "setting": "[7]", "value": 12.5, "unit": "µg/mL"}, {"measurement": "MIC", "setting": "[8]", "value": 1.6, "unit": "µg/mL"}, {"measurement": "MIC", "setting": "[9]", "value": 1.6, "unit": "µg/mL"}, {"measurement": "MIC", "setting": "[10]", "value": 1.6, "unit": "µg/mL"}, {"measurement": "MIC", "setting": "[11]", "value": 25, "unit": "µg/mL"}, {"measurement": "MIC", "setting": "[12]", "value": 1.6, "unit": "µg/mL"}, {"measurement": "MIC", "setting": "[13]", "value": 1.6, "unit": "µg/mL"}, {"measurement": "MIC", "setting": "[14]", "value": "> 100", "unit": "µg/mL"}, {"measurement": "MIC", "setting": "[15]", "value": 0.8, "unit": "µg/mL"}, {"measurement": "MIC", "setting": "[16]", "value": 6.3, "unit": "µg/mL"}, {"measurement": "MIC", "setting": "[17]", "value": "> 100", "unit": "µg/mL"}, {"measurement": "MIC", "setting": "Proteus rettgeri ACR", "value": 3.1, "unit": "µg/mL"}, {"measurement": "MIC", "setting": "[18]", "value": 12.5, "unit": "µg/mL"}, {"measurement": "MIC", "setting": "[19]", "value": 1.6, "unit": "µg/mL"}, {"measurement": "MIC", "setting": "Escheria coli W3630", "value": 1.6, "unit": "µg/mL"}, {"measurement": "MIC", "setting": "[20]", "value": 6.3, "unit": "µg/mL"}, {"measurement": "antibacterial effect", "setting": "Gram negative bacteria", "value": "strong antibacterial effect"}]}]}
